Molecular target: T1, Slp-4 C2A domain (synaptotagmin-like protein 4/granuphilin) (Homo sapiens, UniProt Q96C24)
T1 construct: gene SYTL4; C2A domain G352-S494; N-terminal GST cleaved by thrombin; E. coli BL21(DE3); cation-exchange purified, unmodified main peak
T1 sequence (Q96C24 352-494): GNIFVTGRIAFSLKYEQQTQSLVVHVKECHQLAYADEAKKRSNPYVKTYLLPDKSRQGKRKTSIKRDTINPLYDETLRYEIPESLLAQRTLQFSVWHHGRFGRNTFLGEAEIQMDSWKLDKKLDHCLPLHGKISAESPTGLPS
Assay: Trp-to-dansyl FRET, competitive displacement of protein from dansyl-PE liposomes
Format: binding
Details: read-out: IC50 for IP6 (μM) ^a

O=P(O)(O)O[C@H]1[C@H](OP(=O)(O)O)[C@@H](OP(=O)(O)O)[C@H](OP(=O)(O)O)[C@@H](OP(=O)(O)O)[C@H]1OP(=O)(O)O [IP6, D-myo-inositol-(1,2,3,4,5,6)-hexakisphosphate] was tested, and the IC50 was 620 ± 80 µM.
